The text below walks through data of BindingDB's records for doi:10.1016/s1074-5521(97)90198-8 (Massachusetts Institute of Technology, 1997).

Sequence of Methionine aminopeptidase 2 (P50579 whole entry): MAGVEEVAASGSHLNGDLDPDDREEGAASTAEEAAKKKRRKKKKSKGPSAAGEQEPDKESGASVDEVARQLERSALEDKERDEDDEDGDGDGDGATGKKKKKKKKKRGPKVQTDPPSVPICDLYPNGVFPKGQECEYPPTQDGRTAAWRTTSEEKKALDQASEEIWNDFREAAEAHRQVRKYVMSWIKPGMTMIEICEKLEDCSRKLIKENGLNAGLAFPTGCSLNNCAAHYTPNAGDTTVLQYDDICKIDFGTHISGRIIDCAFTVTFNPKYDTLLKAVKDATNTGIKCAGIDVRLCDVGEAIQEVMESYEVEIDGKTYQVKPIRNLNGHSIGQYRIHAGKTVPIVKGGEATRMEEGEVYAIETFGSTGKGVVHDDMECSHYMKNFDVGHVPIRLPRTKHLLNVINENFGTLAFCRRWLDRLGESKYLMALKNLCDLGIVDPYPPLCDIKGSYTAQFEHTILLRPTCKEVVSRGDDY

This test addresses Methionine aminopeptidase 2 (Homo sapiens, UniProt P50579). Kind of test: Enzymatic Assay. The settings on record: pH 7.35; 37 °C. The source says:
Enzymatic assay using recombinant human type 2 methionine aminopeptidase (MetAP2).
One may read the IC50 as the midpoint of a concentration-inhibition curve. Read a high IC50 as weaker potency. Take `CO[C@H]1C([C@]2(C)OC2CC=C(C)C)[C@]2(CC[C@H]1OC(=O)NC(=O)CCl)CO2` (stereo not given in full) [AGM-1470]: the 50% inhibitory concentration (IC50) was 1 nM.

In turn, `CO[C@@H]1[C@H](O)CC[C@]2(CO2)[C@@]1(O)[C@]1(C)OC1CC=C(C)C` (stereo not given in full) [FOS-34] registered an IC50 of 4 nM. For the molecule `CO[C@H]1C([C@]2(C)OC2CC=C(C)C)[C@]2(CC[C@H]1O)CO2` (stereo not given in full) [FOS-37], half-maximal inhibition (IC50) was put at 8 nM. The figure for `CO[C@H]1C([C@]2(C)OC2CC=C(C)C)[C@@](O)(SC)CC[C@H]1OC(=O)NC(=O)CCl` (stereo not given in full) [FOS-64] is 3000 nM; for `CO[C@@H]1[C@H](OC(=O)NC(=O)CCl)CC[C@]2(CO2)[C@@]1(O)[C@]1(C)OC1CC=C(C)C` (stereo not given in full) [FOS-68] it is 2 nM. For the molecule `CO[C@@H]1[C@H](OC(=O)CCCCl)CC[C@]2(CO2)[C@@]1(O)[C@]1(C)OC1CC=C(C)C` (stereo not given in full) [FOS-69], the IC50 came out at 0.1 nM. In the case of `CO[C@H]1C([C@]2(C)OC2CC=C(C)C)[C@]2(CC[C@H]1OC(=O)CCCCl)CO2` (stereo not given in full) [FOS-70], inhibition was half-maximal at 3.5 nM (IC50). This IC50 is about 35-fold higher than that of the molecule before. For `CO[C@@H]1C(=O)CC[C@]2(CO2)C1[C@]1(C)OC1CC=C(C)C` (stereo not given in full) [FOS-72], the IC50 is 6 nM. `CO[C@@H]1[C@H](O)CC[C@](O)(SC)[C@@]1(O)[C@]1(C)OC1CC=C(C)C` (stereo not given in full) [FOS-201]: the IC50 is 45 nM.

`CO[C@H]1C([C@]2(C)OC2CC=C(C)C)[C@@](O)(SC)CC[C@H]1O` (stereo not given in full) [FOS-202] displayed an IC50 of 5000 nM.
